Measurements taken from article PMC9291756, “Pharmacokinetics of enflicoxib in dogs: Effects of prandial state and repeated administration” (Journal of Veterinary Pharmacology and Therapeutics, 2021).
Read-outs that look alike come from different tables or passages of the source. Blank lines part the entries; values can stand above or below the compound they belong to.

What was measured:
[1] = Single intravenous dose pharmacokinetic study
Procedure: (§1) For the IV administration, a stable 2 mg/ml enflicoxib injectable solution was prepared in a vehicle containing 20% ethanol, 8% kolliphor HS‐15 and 72% water, and sterilised using a ≤0.22‐µm syringe filter. To avoid administering an excessive volume of product, dogs in the IV group received a single dose of 2 mg/kg and were followed for 35 days. A 22‐gauge ¾” catheter was introduced into the cephalic vein, using aseptic technique. A syringe with sterile saline was used to test the patency of the vein. The calculated volume of the solution was slowly administered through the catheter over approximately 1 min. Approximately 1–2 ml of sterile saline was used to flush the catheter following drug administration.
(§2) Blood samples (2 ml) were collected from the jugular vein in K3EDTA tubes for determination of plasma concentrations of enflicoxib and its metabolites, at the following time points:
(§3) Blood samples were centrifuged within 30 min after collection at 2500 g for 10 min at ca. +5 °C. The resultant plasma was divided into 2 aliquots and frozen at ca. −20°C until analysis.
(§4) Method for enflicoxib and its pyrazol metabolite in plasma involved its extraction from 100 µL samples by solid phase extraction (Oasis MCX 30 μm 96‐well plates, 10 mg; Waters) and separated by reverse‐phase liquid chromatography on a Luna PFP (2) column (3 μm, 50 × 4.6 mm; Phenomenex), in gradient mode elution using 0.1% FA in water and MeOH 60:40 (v/v) as mobile phase flushed a flow rate of 1 ml/min. Celecoxib was used as internal standard.
(§5) The pharmacokinetic parameters were obtained from the individual plasma concentration‐time profiles of enflicoxib or its metabolites in each animal, by non‐compartmental analysis using Phoenix® WinNonLin® software (version 8.0. Pharsight Corporation). For all calculations, values below lower limit of quantification (BLLOQ) were considered as “0” except trailing concentrations, which were excluded from calculations.
(§6) Additional pharmacokinetic parameters calculated for the IV treatment were plasma clearance (CL) as CL = Dose/AUCinf; volume of distribution at steady‐state (Vss) as Vss = MRTINF × CL; volume of distribution based on the terminal phase (Vz) as Vz = CL/ λz); and Mean resident time (MRT) was calculated as MRT = AUMC/AUC, with AUMC being the area under the first moment curve. For enflicoxib, C0 was calculated as the extrapolated plasma concentration at time zero after IV administration.

[2] = tested on: COX‐2; conditions: in vitro and in vivo; ref Iñiguez et al., 2010; Wagemakers et al., 2009; cited from earlier work
[3] = In vitro blood to plasma partitioning; conditions: female, Beagle, dog, whole blood
Procedure: Whole blood was obtained from 3 untreated female Beagle dogs (located in Isoquimen SL, Sant Feliu de Codines, Barcelona, Spain) and pooled into two different batches. Lithium heparin was used as anticoagulant. Blood was maintained in a rotator shaker at room temperature before use.
The derived working solutions were freshly prepared each day of experimentation.
The haematocrit (H), percent of total blood cells in whole blood samples (v/v), was determined before the assay. […] The samples were incubated separately (n = 3) at ca 37°C for 60 min under gentle agitation in a rotator shaker in polypropylene tubes. The concentration of organic solvent in the incubates was kept below 0.05% to prevent haemolysis. Reference plasma was incubated similarly in Eppendorf protein LoBind tubes as a surrogate matrix of whole blood to assess total drug concentration (Cb).
For the enflicoxib and pyrazol metabolite determination, the plasma specimens were mixed with AcN containing the internal standard celecoxib for protein precipitation (1:3 ratio plasma: solution). […] After centrifugation, the supernatants were diluted with 0.1% FA in water: AcN (90:10) and injected into the LC‐MS/MS system. […] Blank samples were processed as described before, and were used to check the selectivity and carry‐over of the LC‐MS/MS analytical runs.
The quantification of each test item in plasma was performed using calibration curves ranging from 0.05 to 20 µg/ml. […] In both cases, the LC‐MS/MS response ratios (peak area of analyte/peak area Internal Standard) were used for quantitation.
The analyte concentration obtained from LC‐MS/MS analysis in each sample was used to calculate the blood‐plasma concentration ratio (C b/C p) as follows:
C b/C p = [(concentration in reference plasma; Equivalent to concentration in whole blood) / (concentration in plasma from whole blood)].
From these values, the red blood cells (RBC) to plasma ratio (K RBC/PL) was also calculated using the following equation: KRBC/PL=1/H×Cb/Cp‐1+1 where H: haematocrit.

[4] = Multiple dose oral toxicokinetic (target animal safety) study; conditions: for AUC / Cmax: both, Beagle, dog, plasma, po; for AUC: AUC168, group 1X; for accumulation ratio, loading dose normalised to maintenance dose: weeks 13 and 31 vs week 1, all dose levels
Excerpt: (§7) This study was designed as a Target Animal Safety (TAS) study, to assess the effects of repeated oral administrations of enflicoxib at either the recommended dose (1X), three times the dose (3X) or five times the dose (5X), that were compared to an untreated group (placebo, 0X) and followed the internationally agreed TAS guideline (VICH GL[43], [2008]). Blood samples were taken during the study to assess the dose‐exposure proportionality after single and repeated dose administrations.
(§8) Thirty‐two male and female healthy Beagle dogs, 8–10 months old and experimentally naïve, were obtained from a laboratory animal supplier. All animals were acclimatised for 28 days before study initiation. All dogs were housed in pairs of the same sex and dose group in indoor pens under temperature and humidity‐controlled conditions (15 to 24°C, 40–70% RH). Artificial lighting was provided for approximately 12 h per day. […] For each group, periods of exercise and socialisation were permitted daily. Animals were fed daily with 400 g of a certified commercial pelleted diet.
(§9) Dogs were stratified by sex and weight, (16 males weighing 6.7–9.9 kg and 16 females weighing 5.3–7.0 kg) and allocated to four groups (0X, 1X, 3X and 5X) using a pseudo‐random body weight stratification procedure, which yielded groups of four dogs of each sex with approximately equal mean body weight. Dogs were distributed in a block of several adjacent pens and identified by a microchip inserted shortly after arrival.
(§10) Enflicoxib was supplied as commercial Daxocox® tablets containing 15, 30, 45, 70 or 100 mg of enflicoxib (Ecuphar/Animalcare). The number and size of the tablets administered orally were calculated weekly based on the most recent body weights and the target dose level required. Tablets were administered once weekly, for a total of 13 weeks (5X group) or 32 weeks (0X, 1X and 3X groups). Tablets administration was followed by 10–20 ml tap water to facilitate passage of drug to the stomach.
(§11) Blood samples were collected as described for the determination of blood concentrations of enflicoxib and its pyrazol metabolite. The sampling schedule was at 6 h (on week 1 only), 24, 48, 72, 96, 120, 144 and 168 h post dose in weeks 1, 13 and 31, Additionally, weekly samples were taken prior to each dose throughout the study. Plasma was obtained and stored as described before.
(§12) The AUCt and AUCinf values were calculated with linear trapezoidal rule, and the extrapolation of AUCt to obtain AUCinf was performed using the observed concentration at the last time point. Due to the limited time between doses, the terminal rate constants (λz), and corresponding terminal half‐lives (t1/2), were calculated only for the parent compound. […] The accumulation ratios, based on AUC168 values of both compounds, were calculated at weeks 13 (last experimental week for the 5X group) and 31 (last experimental week for the other groups).
(§13) For the repeated oral dose study, analyses of variance were performed for week 1 and week 13 data separately, including all three dose levels to assess dose proportionality. For weeks 13 and 31, the analysis was done for the low and mid dose levels only, adjusted to 1 mg/kg. The factors in these analyses were dose group, time, sex and their interactions. Animal was included as a blocking factor since the same animals were bled on each sampling day. The data were logarithmically transformed prior to its analysis using SAS 9.4 (SAS Institute (2002) SAS OnlineDoc® Version Nine. SAS Institute Inc.).

[5] = parameters: method as in Ecuphar/Animalcare internal data; conditions: ref Ecuphar/Animalcare internal data; cited from earlier work
[6] = tested on: plasma proteins; test: In vitro plasma protein binding (rapid equilibrium dialysis); assay type: in vitro ADME; conditions: pH 7.4, dog plasma, 160, 400 and 1600 ng/ml (0.4, 1, 4 µM), 37°C, mean values
Procedure: Equilibrium dialysis studies were performed using the Rapid Equilibrium Dialysis (RED) devices (Waters et al., [2008]) that consist of two chambers separated with a dialysis membrane with a cut‐off of 8.0 kDa (Pierce Biotechnology, ThermoFisher Scientific). The plasma protein binding was determined with blank canine plasma spiked with enflicoxib or its pyrazol metabolite. The highly bound compound tolterodine was used as a positive control. Stock solutions of the tested compounds were prepared at 10 mM concentration in DMSO and were immediately used or stored at −20 °C (±5°C) until further use.
Samples were prepared by spiking dog plasma with the compounds at three increasing concentrations (0.4 µM, 1 µM and 4 µM). Plasma samples were loaded (200 µl) in the donor chambers while the opposite chamber contained 350 µl of dialysis buffer (0.1 M phosphate buffer, pH 7.4). Dialysis was run at 37°C for 4 h with continuous shaking. […] The unbound fractions for enflicoxib or its pyrazol metabolite were determined by LC‐MS/MS using a modification of the previously described method. […]
The percent of binding to plasma proteins was calculated as: %Protein binding = (Cdonor‐Cacceptor)/Cdonor∗100. where: Cdonor = Concentration in the donor chamber after dialysis; Cacceptor = Concentration in the acceptor chamber after dialysis. […]
For each plasma sample, protein binding was determined in triplicate.

[7] = Distribution into synovial fluid after IV administration; conditions: day 35 after IV 2 mg/kg enflicoxib
Excerpt: (§14) The distribution into synovial fluid was prospectively investigated in samples corresponding to the last collection timepoint after the IV administration.
(§15) Samples of synovial fluid from the 10 dogs in the IV group were obtained under anaesthesia at 35 days post administration. Blank synovial fluid was obtained from 8 non‐dosed dogs at the same study facilities and pooled before being used for preparation of calibration curve and quality control samples for the qualification of the bioanalytical method.
(§16) Method for hydroxylated pyrazoline metabolite in plasma and for enflicoxib, pyrazol metabolite and hydroxylated pyrazoline metabolite in synovial fluid used the protein‐precipitation technique for extraction from dog samples (50 µl). The analytes were separated by reverse‐phase liquid chromatography on a Kinetex F5 100 Å column (100 × 3.0 mm; Phenomenex), in gradient mode elution using 0.1% FA in water and MeOH as mobile phase flushed a flow rate of 0.75 ml/min. Celecoxib was also used as internal standard.
(§17) For synovial fluid samples, the ratio of synovial fluid to plasma for enflicoxib and its metabolites was calculated at day 35 after IV administration.

[8] = Single oral dose pharmacokinetic study, fed or fasted; conditions: for bioavailability / half-life / Tmax: both, Beagle, dog, plasma; for bioavailability: F% (absolute oral bioavailability); for Tmax: single oral 8 mg/kg enflicoxib, median [min-max]
Excerpt: (§18) Thirty healthy Beagle dogs (males and females) of 1–5 years old at the time of dosing, and bodyweight between 7.4 and 12.3 kg, were housed indoors in climate‐controlled facilities in accordance with accepted laboratory animal care and use guidelines. As the animals belonged to the same centre, they were acclimatised for 5 days before study initiation.
(§19) Dogs were offered approximately 400 g of pelleted canine feed once daily. Fresh potable water was offered ad libitum. All dogs, except those in the Oral‐Fed group, were fasted overnight before dosing and food was offered after the 4‐h blood collection. Dogs in the Oral‐Fed group were supplied with 50% of their daily food ration approximately 1 h before administration, and the remainder of the food was given after the first 15‐min blood collection period post administration.
(§20) The oral groups received a single oral nominal dose of 8 mg/kg of enflicoxib (Daxocox® tablets for dogs, Ecuphar/Animalcare) in its final formulation and were followed for 126 days. The dog’s mouth was opened, the dose placed towards the back of the tongue, and 5 ml of water was administered following the dose to aid in swallowing.
as §2
(§21) Oral groups: Before administration (pre‐dose; Day 1 to Day 0), 15 and, 30 min, 1, 2, 4, 6, 8, 12, 24, 48 h and 3, 4, 6, 7, 10, 14, 21, 28, 42, 56, 70, 84, 98, 112, and 126 days post administration, with the aim to characterise the complete pharmacokinetic profile of the pyrazol metabolite.
as §3
(§22) Plasma concentrations of enflicoxib and its metabolites were measured by two HPLC methods coupled with MS/MS detection (MRM) in negative ion electrospray mode.
as §4, §5

[9] = dog, in vivo
Excerpt: as §18, §19, §20, §2, §21, §3, §22, §4, §5

[10] = dog, in vivo, iv, 2 mg/kg
Procedure: as §1, §2, §3, §4, §5, §6

[11] = dog, in vivo; remark: listed apart in the source
Excerpt: as §7, §8, §9, §10, §11, §12, §13

[12] = dog, in vivo, iv, 2 mg/kg; remark: listed apart in the source
Excerpt: as §14, §15, §16, §17

[13] = both, Beagle, dog, plasma, iv, 2 mg/kg

Structure (SMILES): NS(=O)(=O)c1ccc(N2N=C(C(F)(F)F)C[C@H]2c2ccc(F)cc2F)cc1 (racemic) [Enflicoxib, 4‐(5‐(2,4‐difluorophenyl)‐3‐(trifluoromethyl)‐4,5‐dihydro‐1H‐pyrazol‐1‐yl) benzenesulfonamide]
t1/2 ([1]; IV 2 mg/kg enflicoxib, harmonic mean [min-max], pyrazol metabolite n=4): 19.77 [11.2–29.7] h
Vd [1, 13]: 4 L/kg
clearance [1, 13]: 2.33 mL/min/kg
half-life ([1]; both, Beagle, dog, plasma, iv, 2 mg/kg, t1/2, IV 2 mg/kg enflicoxib, harmonic mean [min-max], pyrazol metabolite n=4): 1200 min
inhibition of COX‐2 enzymatic activity [2]: potent inhibitors
blood plasma ratio at 60 min, 1 µg/ml [3]: 1.07
blood plasma ratio at 60 min, 5 µg/ml [3]: 0.66
blood plasma ratio at 60 min, 15 µg/ml [3]: 0.66
tolerability ([4]; all three dose levels (1X, 3X, 5X), weekly oral, all dogs): well tolerated
AUC ([4]; 4 mg/kg, week 13, mean ± SD): 47600 ng·h/mL
AUC ([4]; 4 mg/kg, week 31, mean ± SD): 64000 ng·h/mL
Cmax ([4]; 4 mg/kg, group 1X (8 + 4 mg/kg weekly oral), week 1, mean ± SD, n=8): 2020 ± 461 ng/mL
Cmax ([4]; 4 mg/kg, group 1X, week 13, mean ± SD): 878 ± 319 ng/mL
Cmax ([4]; 4 mg/kg, group 1X, week 31, mean ± SD): 1450 ± 374 ng/mL
AUC ([4]; 8 mg/kg, week 1, mean ± SD): 87900 ng·h/mL
Cmax ([4]; 12 mg/kg, group 3X, week 13, mean ± SD): 2760 ± 817 ng/mL
Cmax ([4]; 12 mg/kg, group 3X, week 31, mean ± SD): 3380 ± 1120 ng/mL
Cmax ([4]; 20 mg/kg, group 5X (40 + 20 mg/kg), week 1, mean ± SD): 9590 ± 2040 ng/mL
Cmax ([4]; 20 mg/kg, group 5X, week 13, mean ± SD): 4390 ± 1050 ng/mL
Cmax ([4]; 24 mg/kg, group 3X (12 + 24 mg/kg as printed), week 1, mean ± SD): 6050 ± 1390 ng/mL
Normalised accumulation ratio ([4]; group 1X, week 13 vs week 1, based on AUC168): 0.93
Normalised accumulation ratio ([4]; group 1X, week 31 vs week 1): 1.05
Normalised accumulation ratio ([4]; group 3X, week 13 vs week 1): 0.9
Normalised accumulation ratio ([4]; group 3X, week 31 vs week 1): 1.15
Normalised accumulation ratio ([4]; group 5X, week 13 vs week 1): 1
time of Cmax ([4]; week 1 after loading dose, all groups, 6 h = first sampling time): 6 h
pre‐dose plasma concentration ([4]; week 13, all groups): below 100 ng/ml
correlation coefficient, adjusted PK parameters (Cmax, AUC168) vs dose level ([4]; weeks 1 and 13, actual doses, linear regression): higher than 0.8
accumulation ratio, loading dose normalised to maintenance dose [4]: ~1
accumulation ratio, loading dose normalised to maintenance dose ([4]; listed as parent compound): less than 1
accumulation ratio based on AUC168 (not normalised) ([4]; weeks 13 and 31 vs week 1, all three dose levels): approximately 0.5
solubility in water [5]: practically insoluble
fraction unbound at 4 h [6]: 0.0099 to 0.0262
synovial fluid concentration [7]: BLLOQ
bioavailability ([8]; oral, 8 mg/kg, oral 8 mg/kg fasted vs IV 2 mg/kg): 44%
bioavailability ([8]; oral, 8 mg/kg, oral 8 mg/kg fed vs IV 2 mg/kg): 63%
half-life ([8]; other: IV or oral, whatever the feeding condition, terminal elimination half‐life (t1/2), all routes of administration (IV or oral, whatever the feeding condition)): 1200 min
bioavailability ([8]; po, 8 mg/kg, oral 8 mg/kg fed vs IV 2 mg/kg): 63.4%
Tmax ([8]; po, 8 mg/kg, fasted): 4 h
Tmax ([8]; po, 8 mg/kg, fed): 2 h
half-life ([8]; po, 8 mg/kg, t1/2, single oral 8 mg/kg enflicoxib, fasted, harmonic mean): 1100 min
half-life ([8]; po, 8 mg/kg, t1/2, single oral 8 mg/kg enflicoxib, fed, harmonic mean): 1180 min
F% (absolute oral bioavailability) ([8]; oral 8 mg/kg fasted vs IV 2 mg/kg): 44.1%
increase of extent of absorption and plasma exposure by food ([8]; oral 8 mg/kg, fed vs fasted): 43%
Frel% (relative oral bioavailability) ([8]; oral fed vs oral fasted, 8 mg/kg): 143.3%

F% (absolute oral bioavailability) [9]: 49.3%
mean terminal elimination half‐life (t½) [9]: 17 days
terminal elimination half‐life (t1/2) [9]: 14 to 16.9 days
AUCinf ([9]; po, 8 mg/kg): 4,22,700 ± 2,54,500 (60.2) ng·h/ml
AUClast ([9]; po, 8 mg/kg): 3,91,500 ± 2,55,100 (65.2) ng·h/ml
Cmax ([9]; po, 8 mg/kg): 890.3 ± 551.3 (61.9) ng/ml
Tmax ([9]; po, 8 mg/kg): 120.00 [48.00–336.00] h
Tmax, oral doses (fed and fasted), median ([9]; po, 8 mg/kg): 120 to 144 h
t1/2 ([9]; po, 8 mg/kg): 353.9 [255–491] h
AUClast [10]: 1,56,500 ± 39,810 (25.4) ng·h/ml
Cmax [10]: 384.5 ± 123.8 (32.2) ng/ml
MRTlast [10]: 329.5 ± 27.46 (8.3) h
Tmax [10]: 96 [48–96] h
accumulation ratio between weeks 13 and 31, range of dogs [11]: 0.56-1.49
accumulation ratio week 31 vs week 13 [11]: around 1.3
correlation coefficient, adjusted PK parameters (Cmax, AUC168) vs dose level [11]: > 0.9
ratio synovial fluid versus plasma [12]: 0.031-0.078
Structure (SMILES): NS(=O)(=O)c1ccc(-n2nc(C(F)(F)F)cc2-c2ccc(F)cc2F)cc1 [Pyrazol metabolite]
inhibition of COX‐2 enzymatic activity [2]: potent inhibitors
